From patent US20020055174A1, “Complex for transferring an anionic substance of interest into a cell” (priority 2000, published 2002)
“Also recorded” adds a separate entry of the source. Bridge positions count the residues as written; N and C are the ends. Ends that are not written are not given here.

Tests used:
[1] = Liposome leakage assay, POPC/cholesterol 3:2 liposomes; details: POPC/chol 3:2 liposomes
Method: Increasing amounts of the indicated peptides were incubated with POPC/Cholesterol (3:2 mol/mol) liposomes for 30 min at RT. Emitted fluorescence was plotted against peptide concentration. […] B) Liposome leakage activity with complexes of ppTG1 and the plasmid pTG11236 at pH7.
1-Palmitoyl-2-Oleoyl-phosphatidylcholine (POPC) liposomes were prepared by the repeated freeze-thaw method followed by extrusion (Olson et al., 1979, Biochim. Biophys. Acta 557, 19-23). Ten μ-moles of POPC in chloroform were placed in a glass tube and solvent was evaporated under reduced pressure using a Labconco Rapidvap vortex evaporator (Uniequip, Germany). The resulting lipid film was hydrated with 0.5 ml of an aqueous solution of calcein (lOOmM calcein, 3.75 eq. NaOH, 50mM NaCl). The lipid suspension was sonicated until the solution became clear using a sonic water bath (Bransonic 221, Branson Ultrasonics Corp., USA). Five cycles of freeze-thaw were performed before liposomes were extruded by 4 passages through 200 nm pore diameter polycarbonate membranes (Nuclepore, Costar, Mass., USA). Free calcein was removed from calcein encapsulated into liposomes by gel exclusion chromatography using a Sephadex G-50 column (3 cm×14 cm) and a 200 mM NaCl, 25 mM HEPES, pH 7.3 solution as the elution buffer. The final lipid concentration was determined by a phosphorus assay (Bartlett, 1959, J. Biol. Chem. 234, 466-469). Liposomes' diameter was determined by dynamic laser light scattering using a Coulter N4 Plus submicron particle sizer (Coultronics France S. A, France). Measurements were performed within a 3 nm-10000 nm size window with a fixed 90° scattered light angle.
The liposome leakage assay was carried out as described in Planck et al. (1994, J. Biol. Chem. 269, 12918-12924). The liposome stock solution was diluted to a lipid concentration of 45 μM in 1.8× assay buffer (360 mM NaCl, 36 mM sodium citrate, pH 5 and pH 7). A 1:5 serial dilution of the tested peptide was carried out in a 96-well microtiter plate by transferring 20 μl of the peptide solution from one well to the next well and diluting with 80 μl H2O. 100 μl of the liposome solution was added in each well (final lipid concentration: 25 μM) and, after 30 min at room temperature, was assayed for fluorescence at 535 nm (excitation: 485 nm) on a microtiter plate fluorescence spectrometer (WALLAC, 1420 multilabel counter Victor). These conditions are appropriate to analyze fluorescein and as close as possible to the appropriate excitation/ emission profile of calcein (495 nm /515 nm). The value for 100% leakage was obtained by addition of 1 μl of a 10% Triton X-100 solution. Leakage activity was plotted against peptide concentration.
Liposome leakage activities were analyzed on liposomes consisting of POPC and cholesterol at a molar ratio of 3:2 (mol/mol).
Complexes of ppTG1 with plasmid DNA pTG11236 were tested for liposome leakage activity on POPC/chol 3:2 liposomes.
The series of ppTG1 derivatives as they are listed in Materials and Methods was tested for liposome leakage activity on POPC/chol 3:2 liposomes at pH7.

HeLa cells = assay: Transfection in vitro, luciferase plasmid pTG11236; assay type: cell-based; details: for transfection / gene transfer efficiency in vitro, in words: HeLa cells, 50 ng pTG11236, increasing charge ratios, day 1
Method: Cells were plated on 24 well plates at a density of 4×10^4 (293-EBNA ) or 7×10^4 (HeLa, Renca) cells/well in DMEM supplemented with 10% FCS. The next day, the medium was replaced by 200 μl serum-free DMEM and plasmid (pTG11056 or pTG11236)/peptide complexes or plasmid/peptide/lipid complexes were prepared in 30 μl 0.9% NaCl or 5% glucose. After 20 min at room temperature these complexes were added to the cells which were then incubated for 2-3 h at 37° C. and 5% CO2 before 1 ml serum-containing DMEM was added. Approximately 20-hours later, cells were lysed by addition of 100 μl 1× Promega lysis buffer, 20 μl of the lysates were analysed for luciferase activity. Proteins were quantified with the bicinchonic acid (BCA) colorimetric method (Smith, Anal. Biochem. 150 (1985), 76-85).
In another experiment, 7×10^4 HeLa cells, seeded on 24-well plates the day before transfection, were transfected with 0.5 μg or 0.05 μg pTG11236, complexed with Lipofectin or ppTG1. The plasmid/peptide complexes were prepared in 30 μl of 5% glucose or 0.9% NaCl and added to the cells (200 μl serum-free medium) after 20 min at room temperature. Serum-containing medium was added after 3 h, the cells were harvested the next day.
A comparison of the effect on transfection efficiency of ppTG1 and JTS-1-K13 was carried out in HeLa cells. Complexes of 0.5 μg or 0.05 μg pTG11236 were formed with increasing amounts the respective peptide.
A comparison of ppTG1 and KALA was carried out in HeLa and CHO cells. 5×10^4 cells were seeded on 24 well plates. The next day, cells were transfected with 500 ng and 50 ng of pTG11236, complexed with ppTG1 or KALA in 30 μl 0.9% NaCl. The charge ratio +/− varied from 1, 2, 3, 4, 7 to 10. Cells were harvested 20 h after transfection and lysis was obtained in 100 μl Promega lysis buffer. Luciferase activity and total protein concentrations in 20 μl were determined.
HeLa cells were seeded at a density of 6×10^4 cells on 24 well plates. The next day, cells were incubated with 200 μl serum-free medium, 30 μl of plasmid (50 ng)/peptide/lipid mixtures were added and incubated for 3 h at 37° C. in 5% CO2. 1 ml of DMEM+10% FCS was then added. The next day, the medium was removed and cells were washed with 500 μl of PBS and subsequently treated with 100 μl of Promega lysis buffer. Plates were stored at −80° C. until luciferase activity was measured of 20 μl of the cell lysate. The protein assay was performed using the Pierce BCA kit.
JTS1 was dissolved to 1 mg/ml in 1 mM NaOH and mixed with DNA diluted in 5% glucose. ppTG1 was then added to this solution. The pcTG90/DOPE ppTG1 mixtures were prepared as described in Example 6. Transfection assays were performed on HeLa cells with 50 ng of plasmid as described in Example 6.
The series of ppTG1 derivatives listed in Material and Methods were tested for their gene transfer efficiencies in Hela cells. 6×10^4 cells were transfected with 50 ng pTG11236 complexed with increasing amounts of peptide. Luciferase activity was analyzed day 1 after transfection. The results are shown in FIG. 10B (ppTG20, ppTG21), FIG. 10C(ppTG25, ppTG26, ppTG27), FIG. 10D (ppTG28 to ppTG33), FIG. 10E (PEG-ppTG1 and PEG-ppTG20), FIG. 10F (ppTG22 to ppTG24) and FIG. 10G (ppTG20-D).

B6SJL mice = details: for gene transfer efficiency in the lung, in words: i.v., 50 or 60 μg pTG11236, day 1
Method: Indicated amounts of the luciferase expression plasmid pTG11236 were mixed with ppTG1 and /or pcTG90/DOPE. The resulting formulations were injected intramuscularly(30 μl), intravenously(250 μl) into mice or intratumorally (Renca tumors, 100 μgl). Muscles, tumors or organs were recovered at the indicated points of time, macerated and tested for luciferase activity with the luciferase assay kit from Promega.
60 μg or 30 μg of the plasmid pTG11236 were mixed with peptide ppTG1 and/or with a pcTG90/DOPE 1:2 mixture in 250 μl 5% glucose. After 20 min incubation at room temperature, the complexes were intravenously injected into B6SJL mice. Mice were sacrificed at day 1. The lungs were recovered, total protein was extracted and luciferase activity was analysed.
The potential of gene transfer with mono-component peptide vectors was investigated in vivo. Fifty or sixty μg of the luciferase expression plasmid pTG11236 were complexed with pcTG90/DOPE (1:2) [+/−] 10 in 250 μl 5% glucose (Meyer et al. 2000). The resulting lipoplex vector served as reference for gene transfer studies with pTG11236 complexed with ppTG1, ppTG20 and ppTG32 in 250 μl 5% glucose. Five mice per group were intravenously injected, the animals were sacrificed at day 1 after injection. Lungs were tested for luciferase activity.

plasmid pTG11236 = assay: Gel retardation assay (DNA binding)
Method: 3μg of the plasmid pTG11236 were incubated with increasing amounts of the respective peptide in a final volume of 30 μl with 0.9% NaCl. After 20 min of incubation at room temperature, 6 μl 5× loading buffer (glycerol and bromphenol blue in TAE buffer) were added and 10 μl of these solutions were analyzed on a 1% agarose gel in the presence of ethidium bromide.
The ability of ppTG1 peptide to complex DNA was analyzed by gel retardation assays. […] After 20 minutes incubation at room temperature, loading buffer was added and 10 μl of the resulting solution were analyzed on a 1% agarose gel.
ppTG1 derivatives as they are indicated in Materials and Methods, were tested for their capacity to bind plasmid DNA by gel retardation assays.

[2] = pH 5 vs pH 7; cited from earlier work

| Substance | liposome leakage activity, in words ([1]; pH7) | transfection / gene transfer efficiency in vitro, in words (HeLa cells) | also measured |
| --- | --- | --- | --- |
| Gly-Leu-Phe-Glu-Ala-Leu-Leu-Glu-Leu-Leu-Glu-Ser-Leu-Trp-Glu-Leu-Leu-Leu-Glu-Ala-Cys-Cys-Tyr-Lys-Ala-Lys-Lys-Lys-Lys-Lys-Lys-Lys-Lys--Trp-Lys-Lys-Lys-Lys-Gln-Ser (GLFEALLELLESLWELLLEACCYKAKKKKKKKKWKKKKQS; disulfide 21-22) [JTS-1-K13, reference compound] | impeded in calcein release | – | liposome leakage activity, in words ([1]; pH5): low level release; transfection (HeLa cells; 0.05 μg plasmid DNA, FIG. 4): remains low; luciferase expression (HeLa cells; 0.5 μg pTG11236 complexed with 1.5 μg peptide): high level of luciferase expression; gene transfer efficiency in the lung, in words (B6SJL mice): low |
| GLFHALLHLLHSLWHLLLHA | comparable to ppTG1 | strongly reduced | DNA binding, in words (plasmid pTG11236; pH5): binds plasmid DNA at pH5; also recorded: can bind DNA at pH5 |
| GLFRALLRLLRSLWRLLLRA [ppTG20] | – | – | toxicity in vivo, in words (B6SJL mice; i.v. injection of peptide/pTG11236 complexes): less toxic than ppTG1 |
| CGLFKALLKLLKSLWKLLLKA [ppTG23] | slightly reduced membrane destruction | – | – |
| GIFRAIIRIIRSIWRIIIRA [ppTG31] | slightly reduced liposome leakage activity | diminished gene transfer efficiency in vitro; also recorded: reduced the efficiency of gene transfer | – |
| GLFKKLLKLLKKLWKLLLKA [ppTG28] | slightly reduced liposome leakage activity | comparable to ppTG1 and ppTG20; also recorded: did not change transfection efficiencies | – |
| GVFRAVVRVVRSVWRVVVRA [ppTG33] | diminished liposome leakage activity; also recorded: significantly reduced liposome leakage activity | diminished gene transfer efficiency in vitro | – |
| GIFKAIIKIIKSIWKIIIKA [ppTG30] | – | diminished gene transfer efficiency in vitro; also recorded: reduced the efficiency of gene transfer | – |
| GVFKAVVKVVKSVWKVVVKA [ppTG32] | diminished liposome leakage activity; also recorded: significantly reduced liposome leakage activity | diminished gene transfer efficiency in vitro | gene transfer efficiency in the lung, in words (B6SJL mice): drastically reduced gene transfer efficiency; also recorded: did not lead to detectable reporter gene expression |
| Gly-Leu-Phe-Arg-Ala-Leu-Leu-Arg-Leu-Leu-Arg-Ser-Leu-Trp-Arg-Leu-Leu-Leu-Arg-Ala (GLFRALLRLLRSLWRLLLRA; also: D-amino acids, places not given here) [ppTG20-D] | retained | retained; also recorded: as efficient as ppTG1 | – |
| WEAKLAKALAKALAKHLAKALAKALKACEA [reference compound] | could not liberate calcein | – | liposome leakage activity, in words ([1]; pH5): could not liberate calcein; gene transfer at optimal charge ratio lower than for ppTG1 (HeLa cells; HeLa, 500 ng pTG11236): 4 fold; gene transfer efficiency in the lung, in words (B6SJL mice): undetectable; also recorded: inefficient |
| GLFRRLLRLLRRLWRLLLRA [ppTG29] | slightly reduced liposome leakage activity | comparable to ppTG1 and ppTG20; also recorded: did not change transfection efficiencies | – |
| CGLFKALLKLLKSLWKLLLKAC (cysteine pairing not given here) [ppTG24] | slightly reduced membrane destruction | – | – |
| GLFEALLELLESLWELLLEA [reference compound] | reduced | – | lysis of calcein containing phosphatidylcholine liposomes [2]: capable of lysing calcein containing phosphatidylcholine liposomes at pH 5, more efficiently than at a pH 7; retardation of plasmid DNA (plasmid pTG11236; 3 μg pTG11236 and 0.1 μg to 10 μg peptide): not observed; liposome leakage activity, in words ([1]; pH5): high lysis activity |
